The source of these data is publication PMC6125430, “Structural Analysis of Redox-sensing Transcriptional Repressor Rex from Thermotoga maritima” (Scientific Reports, 2018).

One data set addresses T1, TmRex (Thermotoga maritima, UniProt Q9WY16).
T1 construct: gene rex1; full-length gene (pET28b NdeI/XhoI), N-terminal His6 tag (tag removal told only for SeMet protein), E. coli BL21(DE3) Star pLysS; homodimer; primers encode N-terminal MAEKIPK
The experiment in a line: X-ray crystallography of the complex. To be noted: 1:1 per C-terminal domain. In kind it is binding.

Data set [1] deals with the molecule itself. The experiment in a line: crystal structure; apo TmRex, native protein, 2.0 Å; sitting-drop vapour diffusion at 296 K, 200 mM potassium chloride, 20% (w/v) PEG 3,350; four subunits (two homodimers) in the asymmetric unit.

As to `NC(=O)C1=CN([C@@H]2O[C@H](COP(=O)(O)OP(=O)(O)OC[C@H]3O[C@@H](n4cnc5c(N)ncnc54)[C@H](O)[C@@H]3O)[C@@H](O)[C@H]2O)C=CC1` [NADH], the “X-ray crystallography of the complex” value on TmRex (co-crystallization with 1 mM NADH, 2.45 A, closed form) is recorded as “NADH-bound TmRex crystals were grown by co-crystallization”.
Regarding `NC(=O)c1ccc[n+]([C@@H]2O[C@H](COP(=O)(O)OP(=O)(O)OC[C@H]3O[C@@H](n4cnc5c(N)ncnc54)[C@H](O)[C@@H]3O)[C@@H](O)[C@H]2O)c1` [NAD^+], the “X-ray crystallography of the complex” value at TmRex (apo crystals soaked with 1 mM NAD+ for 10 h, 2.2 A, open form) is “The structure of NAD^+-bound TmRex was refined with crystallographic Rwork and Rfree values”.

B1: Redox-sensing transcriptional repressor Rex from Thermotoga maritima (natural protein, UniProt Q9WY16 1-208, looked up)
chain: MAEKIPKPVSKRLVSYYMCLERLLDEGVEVVSSEELARRLDLKASQIRKDLSYFGEFGKRGVGYNVEHLYDAIGEILGVKKEWKLVVVGAGNIGRAVANYTVMKEKGFRIIGIFDSDPSKIGKEAAPGLTVSDVSELEKFVEEHGVEIGVIAVPAEHAQEIAERLEKAGIKGILNFAPVKIKVSVPVENIDITASLRVLTFEIVRRNS
notes: Rex (TM0169) of Thermotoga maritima, rex gene amplified from genomic DNA with primers from the ATG start codon to the stop codon; residues 1-208 (N-terminal domain 1-77, linker loop 78-83, C-terminal domain 84-208); Cloned into pET28b(+) with NdeI and XhoI; for the native protein in the deposited structures no removal is told; also called TmRex; TM0169; source: E. coli BL21 (DE3) star pLysS, …
On to B1, for which the binding result in data set [1] is recorded as “binds”.
